Experimental data: US20230355501A1, “COSMETIC COMPOSITION” (AJINOMOTO CO., INC., priority 2021, published 2023)

Test: Melting point of PHC compositions by differential scanning calorimeter
Assay type: physicochemical
Conditions: DSC7000X, approx. 2 mg, nitrogen atmosphere, from 25° C. at 5° C./min
Description: PHCs in a mixing ratio shown in Table 2 were mixed in a mortar, to prepare each sample.
Each sample in an amount of approximately 2 mg was heated under a nitrogen atmosphere using a differential scanning calorimeter DSC7000X (Hitachi High-Tech Science Corporation) with the temperature raised from 25° C. at a rate of 5° C./min. The temperature at the intersection of the base line and the inflection point of endothermic peak was taken as the melting point of the sample.

Melting point	Compound
122.0 °C	CCCCCCCCCCCCCCCCCC(=O)NC(CO)C(O)C(O)CCCCCCCCCCCC (stereo not drawn) [Sample 11, C18:0-PHS16:0]
124.2 °C	CCCCCCCCCCCCCCCCCC(=O)NC(CO)C(O)C(O)CCCCCCCCCCCCCC (stereo not drawn) [Sample 12, C18:0-PHS18:0]
126.2 °C	CCCCCCCCCCCCCCCCCC(=O)NC(CO)C(O)C(O)CCCCCCCCCCCCCCCC (stereo not drawn) [Sample 13, C18:0-PHS20:0]
